Like-named read-outs stand apart in the source and are kept apart here.
Assay: Timed organ biodistribution of [^64Cu]Cu-DOTATATE by ex vivo gamma counting
Type: in vivo, mice
Conditions: mouse, intravenous, 1.85 MBq, total radioactivity, median (IQR); for tissue uptake at 2 h: 120 min after injection; for tissue uptake at 1 min: 1 min after injection; for tissue uptake at 0.5 h: 30 min after injection; for tissue uptake at 5 min: 5 min after injection; for tissue uptake at 1 h: 60 min after injection; for tissue uptake at 0.25 h: 15 min after injection
Description: Wild-type and atherosclerotic animals were injected with approximately 1.85 MBq of [^64Cu]Cu-DOTATATE and euthanized at either 1, 5, 15, 30, 60 or 120 min after injection (Supplementary Fig. S1A) to evaluate the tracer’s biodistribution. After euthanasia, an insulin syringe was used to collect blood samples from the right ventricle. Blood samples were used for the establishment of pharmacokinetics profile. Mice were then perfused with 20 mL of phosphate-buffered saline (PBS) and tissues of interest (heart, aorta, bone marrow, spleen, liver, stomach, bladder, kidneys, intestines, lungs, adrenal gland, muscles and pancreas) were harvested. Tissues were blotted for gamma counting on a Wizard2 2480 automatic gamma counter (Perkin Elmer, Waltham, MA). Values were corrected for decay and normalized to tissue weight to express radioactivity concentration as percentage injected dose per gram (%ID/g). […] To investigate the tracer’s distribution within different blood compartments, after gamma counting, 100 μL of blood were spun down at 2000 g for 15 min at 4 °C. Plasma (supernatant) and cells (pellet) were gamma counted and expressed as percentage of total activity. The remainder of the blood was separated using Lymphoprep density gradient medium (Nycomed Pharma, Zurich, Switzerland) following manufacturer’s instructions. Percentage of activity in mononuclear and polynuclear cells was calculated.

[1] = liver, female C57BL/6 mice, N=3-7, read-out: Tissue radioactivity, liver
[2] = lungs, female Apoe^-/- mice 12 weeks on Western Diet, N=3-8, read-out: Tissue radioactivity, lungs
[3] = lungs, female C57BL/6 mice, N=3-7, read-out: Tissue radioactivity, lungs
[4] = lymph node, female Apoe^-/- mice 12 weeks on Western Diet, N=3-8, read-out: Tissue radioactivity, lymph node
[5] = lymph node, female C57BL/6 mice, N=3-7, read-out: Tissue radioactivity, lymph node
[6] = muscle, female Apoe^-/- mice 12 weeks on Western Diet, N=3-8, read-out: Tissue radioactivity, muscle
[7] = muscle, female C57BL/6 mice, N=3-7, read-out: Tissue radioactivity, muscle
[8] = pancreas, female Apoe^-/- mice 12 weeks on Western Diet, N=3-8, read-out: Tissue radioactivity, pancreas
[9] = pancreas, female C57BL/6 mice, N=3-7, read-out: Tissue radioactivity, pancreas
[10] = small intestine, female Apoe^-/- mice 12 weeks on Western Diet, N=3-8, read-out: Tissue radioactivity, small intestine
[11] = small intestine, female C57BL/6 mice, N=3-7, read-out: Tissue radioactivity, small intestine
[12] = spleen, female Apoe^-/- mice 12 weeks on Western Diet, N=3-8, read-out: Tissue radioactivity, spleen
[13] = spleen, female C57BL/6 mice, N=3-7, read-out: Tissue radioactivity, spleen
[14] = stomach, female Apoe^-/- mice 12 weeks on Western Diet, N=3-8, read-out: Tissue radioactivity, stomach
[15] = stomach, female C57BL/6 mice, N=3-7, read-out: Tissue radioactivity, stomach
[16] = tail, female Apoe^-/- mice 12 weeks on Western Diet, N=3-8, read-out: Tissue radioactivity, tail
[17] = tail, female C57BL/6 mice, N=3-7, read-out: Tissue radioactivity, tail
[18] = thoracic aorta, female Apoe^-/- mice 12 weeks on Western Diet, N=3-8, read-out: Tissue radioactivity, thoracic aorta
[19] = thoracic aorta, female C57BL/6 mice, N=3-7, read-out: Tissue radioactivity, thoracic aorta

tissue uptake at 2 h (liver, female Apoe^-/- mice 12 weeks on Western Diet, N=3-8, read-out: Tissue radioactivity, liver): 6.3 %ID/g | tissue uptake at 1 min [1]: 10 %ID/g | tissue uptake at 0.5 h [1]: 6.4 %ID/g | tissue uptake at 1 min [2]: 2.1 %ID/g | tissue uptake at 5 min [2]: 2.6 %ID/g | tissue uptake at 0.5 h [2]: 1.6 %ID/g | tissue uptake at 1 h [2]: 2.5 %ID/g | tissue uptake at 2 h [2]: 2.8 %ID/g | tissue uptake at 5 min [3]: 3.2 %ID/g | tissue uptake at 0.5 h [3]: 1.3 %ID/g | tissue uptake at 1 h [3]: 1.1 %ID/g | tissue uptake at 1 min [4]: 2.6 %ID/g | tissue uptake at 5 min [4]: 3.2 %ID/g | tissue uptake at 0.25 h [4]: 3 %ID/g | tissue uptake at 0.5 h [4]: 2.4 %ID/g | tissue uptake at 1 h [4]: 2.1 %ID/g | tissue uptake at 1 min [5]: 3 %ID/g | tissue uptake at 5 min [5]: 4.7 %ID/g | tissue uptake at 0.25 h [5]: 3.2 %ID/g | tissue uptake at 1 h [5]: 1.3 %ID/g | tissue uptake at 2 h [5]: 0.6 %ID/g | tissue uptake at 1 min [6]: 1.2 %ID/g | tissue uptake at 5 min [6]: 1.4 %ID/g | tissue uptake at 0.25 h [6]: 0.6 %ID/g | tissue uptake at 0.5 h [6]: 0.7 %ID/g | tissue uptake at 1 h [6]: 0.4 %ID/g | tissue uptake at 2 h [6]: 0.3 %ID/g | tissue uptake at 1 min [7]: 2 %ID/g | tissue uptake at 5 min [7]: 1.6 %ID/g | tissue uptake at 0.5 h [7]: 0.5 %ID/g | tissue uptake at 1 h [7]: 0.3 %ID/g | tissue uptake at 2 h [7]: 0.3 %ID/g | tissue uptake at 1 min [8]: 4.7 %ID/g | tissue uptake at 5 min [8]: 4.1 %ID/g | tissue uptake at 0.25 h [8]: 3.5 %ID/g | tissue uptake at 0.5 h [8]: 3.4 %ID/g | tissue uptake at 1 h [8]: 2.7 %ID/g | tissue uptake at 2 h [8]: 2.6 %ID/g | tissue uptake at 1 min [9]: 8.7 %ID/g | tissue uptake at 5 min [9]: 5.3 %ID/g | tissue uptake at 0.25 h [9]: 6.1 %ID/g | tissue uptake at 0.5 h [9]: 5.8 %ID/g | tissue uptake at 1 h [9]: 4.8 %ID/g | tissue uptake at 2 h [9]: 2.6 %ID/g | tissue uptake at 1 min [10]: 1.4 %ID/g | tissue uptake at 5 min [10]: 1.2 %ID/g | tissue uptake at 0.5 h [10]: 3.1 %ID/g | tissue uptake at 2 h [10]: 7.2 %ID/g | tissue uptake at 1 min [11]: 3 %ID/g | tissue uptake at 5 min [11]: 2 %ID/g | tissue uptake at 0.25 h [11]: 1.7 %ID/g | tissue uptake at 0.5 h [11]: 2.6 %ID/g | tissue uptake at 1 h [11]: 2.4 %ID/g | tissue uptake at 1 min [12]: 2 %ID/g | tissue uptake at 5 min [12]: 1.1 %ID/g | tissue uptake at 0.25 h [12]: 1.2 %ID/g | tissue uptake at 0.5 h [12]: 1.1 %ID/g | tissue uptake at 1 h [12]: 0.8 %ID/g | tissue uptake at 2 h [12]: 1.2 %ID/g | tissue uptake at 5 min [13]: 1.5 %ID/g | tissue uptake at 0.5 h [13]: 0.7 %ID/g | tissue uptake at 1 h [13]: 0.6 %ID/g | tissue uptake at 2 h [13]: 0.5 %ID/g | tissue uptake at 1 min [14]: 2.1 %ID/g | tissue uptake at 5 min [14]: 2.4 %ID/g | tissue uptake at 2 h [14]: 5 %ID/g | tissue uptake at 1 min [15]: 2.3 %ID/g | tissue uptake at 5 min [15]: 2.4 %ID/g | tissue uptake at 0.25 h [15]: 5 %ID/g | tissue uptake at 0.5 h [15]: 7.8 %ID/g | tissue uptake at 1 h [15]: 8 %ID/g | tissue uptake at 2 h [15]: 3.2 %ID/g | tissue uptake at 5 min [16]: 2.5 %ID/g | tissue uptake at 0.25 h [16]: 2.5 %ID/g | tissue uptake at 0.5 h [16]: 3.1 %ID/g | tissue uptake at 1 h [16]: 2 %ID/g | tissue uptake at 2 h [16]: 2.7 %ID/g | tissue uptake at 1 min [17]: 3.5 %ID/g | tissue uptake at 5 min [17]: 2.7 %ID/g | tissue uptake at 1 h [17]: 1.6 %ID/g | tissue uptake at 2 h [17]: 0.6 %ID/g | tissue uptake at 1 min [18]: 2.9 %ID/g | tissue uptake at 5 min [18]: 2.1 %ID/g | tissue uptake at 0.25 h [18]: 2 %ID/g | tissue uptake at 1 h [18]: 2.1 %ID/g | tissue uptake at 2 h [18]: 2.1 %ID/g | tissue uptake at 1 min [19]: 3.2 %ID/g | tissue uptake at 5 min [19]: 3.1 %ID/g | tissue uptake at 0.25 h [19]: 1.6 %ID/g | tissue uptake at 0.5 h [19]: 1.3 %ID/g | tissue uptake at 1 h [19]: 1.2 %ID/g | tissue uptake at 2 h [19]: 1 %ID/g
Structure (SMILES): C[C@@H](O)[C@H](NC(=O)[C@@H]1CSSC[C@H](NC(=O)[C@@H](Cc2ccccc2)NC(=O)CN2CCN(CC(=O)O)CCN(CC(=O)O)CCN(CC(=O)O)CC2)C(=O)N[C@@H](Cc2ccc(O)cc2)C(=O)N[C@H](Cc2c[nH]c3ccccc23)C(=O)N[C@@H](CCCCN)C(=O)N[C@@H]([C@@H](C)O)C(=O)N1)C(=O)O [[^64Cu]Cu-DOTATATE, metal not drawn]
